One data set deals with T1, GIPR (Rattus norvegicus, UniProt P43219).
T1 construct: endogenous in cells; host or cells: rat INS-1 insulinoma cells (with cAMP-luciferase reporter / pGloSensor-22F biosensor)
T1 sequence (P43219 19-455): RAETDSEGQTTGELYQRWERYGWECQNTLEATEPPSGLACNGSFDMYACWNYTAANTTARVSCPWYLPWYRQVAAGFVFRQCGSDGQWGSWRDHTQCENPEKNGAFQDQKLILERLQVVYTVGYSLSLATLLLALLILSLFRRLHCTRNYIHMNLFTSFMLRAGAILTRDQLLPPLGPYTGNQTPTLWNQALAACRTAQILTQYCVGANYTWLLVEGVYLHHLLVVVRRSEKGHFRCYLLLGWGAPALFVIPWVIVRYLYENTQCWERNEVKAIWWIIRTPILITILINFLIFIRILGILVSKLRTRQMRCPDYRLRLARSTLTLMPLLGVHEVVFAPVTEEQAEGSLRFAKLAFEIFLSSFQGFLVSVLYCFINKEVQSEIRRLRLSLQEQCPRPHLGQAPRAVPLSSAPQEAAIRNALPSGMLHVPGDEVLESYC
The experiment in a line: pGloSensor-22F cAMP biosensor assay for GIPR agonism and antagonism in rat INS-1 cells. It counts as cell-based. Further details: dose or concentration left out as unconfirmed. The settings on record: mixed with GIP(Ag). As to the method:
A series of GIP antagonist peptides were evaluated at blocking human GIP (hGIP) agonism and the induction of cAMP. Briefly, rat INS-1 cells having pGloSensor-22F (Promega) were constructed and used to evaluate GIPR agonism and antagonism. […] The conformational change leads to the activation of the luciferase enzyme, thereby allowing detection of activation of GIPR, which produces cAMP upon activation.
To assay for GIPR agonism, rat INS-1 cells having pGloSensor-22F biosensor were treated with increasing concentrations of GIP(Ag). Immediately after the addition, the luminescence of the cells was measured, normalized using the basal luminescence and plotted.
GIPR antagonism was measured as the inhibition of GIP(Ag)-induced activation of the cAMP-luciferase reporter gene in rat INS-1 cells having pGloSensor-22F biosensor. The following GIP derivatives accessed in this assay for GIPR antagonism: GIP(Ant 3-30), GIP(Ant 3-30NH2), (GIP(Ant 3-30) having amidated carboxy terminus), GIP(AntPro3), GIP(AntPro3NH2), GIP(Ant3-30, Pro3) and GIP(Ant3-30, Pro3NH2). Briefly, rat INS-1 cells having pGloSensor-22F were treated with increasing doses of the above various GIP derivatives, mixed with […] GIP(Ag). Immediately after the addition, the luminescence of the cells was measured, normalized using the basal luminescence and plotted.
The GIP(Ag) was re-evaluated across a broader concentration range. Rat INS-1 cells having pGloSensor-22F biosensor were treated with increasing concentrations of GIP(Ag). Immediately after the addition, the luminescence of the cells was measured, normalized using the basal luminescence and plotted.
The GIP(AntPro3) and GIP(AntPro3NH2) were re-evaluated across a broader concentration range. Briefly, rat INS-1 cells having pGloSensor-22F were treated with increasing doses of GIP(AntPro3) and GIP(AntPro3NH2), mixed with […] GIP(Ag). Immediately after the addition, the luminescence of the cells was measured, normalized using the basal luminescence and plotted.

Data set [1] relates to HFD-fed mice (Male C57BL/6). The experiment in a line: longer-term obesity model in HFD-fed mice. The settings on record: for blood glucose levels: Days 0, 1, 10 and 15, compared to the untreated mice, FIG. 8E; for liver histology: hepatocellular ballooning and steatosis: H&E, FIG. 8J; for plasma insulin levels on Day 1: between 15 and 120 minutes after treatment, one way ANOVA p<0.05, FIG. 8C left panel; for average daily food intake: compared to the untreated mice, FIG. 8D; for liver weight: livers of PBS control mice versus treated mice / subcutaneous white adipose tissue (sWAT) weight: day 19 necropsy; for liver weight: livers of PBS control mice versus treated mice: FIG. 8G; for subcutaneous white adipose tissue (sWAT) weight: versus PBS control, FIG. 8H; for tolerability: obesity model; for plasma insulin levels on Day 15: one way ANOVA p<0.0001, FIG. 8C right panel; for change in body weight: tail vein dosing Day 0, 4, 7, 10, 14, 18, FIG. 8A. An excerpt: Briefly, mice (Male C57BL/6) were of approximately 13 weeks of age were housed 4 mice per cage. Following 2 weeks of acclimation, mice were introduced to 60% kcal HFD (Research Diets D12492). Cages were changed once, then changed once a week. Weekly body weights and non-fasted blood glucose were collected. […] The longer-term obesity model assesses a number of end points associated with obesity related type 2 diabetes (FIG. 6A).
Mice (Male C57BL/6) were of approximately 13 weeks of age were housed 4 mice per cage. Following 2 weeks of acclimatation, mice were introduced to 60% kcal HFD (Research Diets D12492). Cages were changed once, then changed once a week. Weekly body weights and non-fasted blood glucose were collected.
Mice were injected by tail vein with vehicle or the drugs on Day 0, Day 4, Day 7, Day 10, Day 14, and Day 18. Body weights were measured every 2 days. Change in body weight was calculated and plotted.
Cumulative food intake was measured between day 0 and 3, between day 4 and 7, between day 7 and day 11, and between day 11 and day 14, and represented as average daily food intake. For food consumption, remaining food was weighed on days 3, 8, and 15, and subtracted from the starting weight. This value was then normalized to the number of mice in the cage, and the number of days the mice had access to the food prior to weighing.
Blood glucose levels were measured on Days 0, 1, 10 and 15 and plotted.
On day 19 during terminal necropsy, liver and subcutaneous white adipose tissue were recovered weighed from treated animals.
To further analyze the changes in liver, histopathological analysis was conducted. Briefly, the liver tissue was stained with hematoxylin and eosin (H&E) and evaluated using standard techniques.

In data set [2] the test system is HFD-fed mice (Male C57BL/6). The experiment in a line: glucose tolerance test (GTT) model in HFD-fed mice. Type of data set: in vivo. As to the method: Cages were changed once, then changed once a week.
The mice administered the above treatment by i.v. injections. The mice were then fasted for 18 hours and administered a dose of 2 g/kg glucose by i.v. injections. Blood samples were drawn by tail clip bleeding at 15, 30 and 60 minutes post dosing and cardiac bleeding was used at 2 hours after glucose injection as end-point.

Setting [3] is: broader concentration range, FIG. 5B.

Entries after “also recorded” stand apart in the source; their conditions may differ. Where no end group is shown, it is not given here.

Regarding “GIP(AntPro3): GIP antagonist peptide, SEQ ID NO: 97 (YAPGTFISDYSIAMDKIHQQDFVNWLLAQKGKKNDWKHNITQ)”, the “inhibition of GIP(Ag)-induced activation of the cAMP-luciferase reporter gene (GIPR antagonism)” value was “dose-dependent inhibition of GIP(Ag)-induced activation” in the data set with GIPR (setting [3]) and “more potent inhibition of GIP agonist signaling than the others tested; also recorded: maximal level of a dose-dependent inhibition of GIP(Ag)-induced activation” in the data set with GIPR (FIG. 5A).

With dulaglutide [reference compound], in data set [1], the blood glucose levels entry is given as “decrease in blood glucose”; the “liver histology: hepatocellular ballooning and steatosis” value was “a decrease in hepatocellular ballooning and steatosis”; the “plasma insulin levels on Day 1” value is on record as “rapid decrease in insulin levels”; the “average daily food intake” value is on record as “decrease in food intake”. In addition, in data set [1], the “liver weight: livers of PBS control mice versus treated mice” value is “much heavier compared to the mice receiving treatments”; the “subcutaneous white adipose tissue (sWAT) weight” value is recorded as “decreased”; the tolerability entry was “well tolerated and no overt toxicities were noted”; the “plasma insulin levels on Day 15” value is “significant decrease in the levels of insulin”. Besides, the “change in body weight” value in data set [1] is listed as “progressive weight loss”. Besides, in data set [1] (picrosirius red, FIG. 8I), the “liver collagen staining (fibrosis)” value is “a decrease in collagen staining”.

Regarding “GLP-1-Fc-GIP(AntPro3): GLP-1 fused to GIP antagonist peptide (amino acids 1-42 having E3P mutation) via IgG1 hinge-CH2-CH3 Fc domain; SEQ ID NO: 95”, the “serum insulin time course following glucose administration” value in data set [2] (FIG. 7C) is given as “rapid induction of insulin”. The “serum glucose time course following glucose administration” value in data set [2] (i.v. treatment, 18 hours fast, 2 g/kg glucose, versus PBS control (200 to about 800 mg/dl), FIG. 7A) is recorded as “much smaller increase in serum glucose”. For the same substance, in data set [2] (summary of GTT model), the glucose tolerance result is given as “improved glucose tolerance”. In data set [1], the blood glucose levels result is reported as “decrease in blood glucose”; the “liver histology: hepatocellular ballooning and steatosis” value was “a decrease in hepatocellular ballooning and steatosis”; the “plasma insulin levels on Day 1” value is “rapid decrease in insulin levels”; the “average daily food intake” value was “decrease in food intake”. Also, in data set [1], the “liver weight: livers of PBS control mice versus treated mice” value is listed as “much heavier compared to the mice receiving treatments”; the “subcutaneous white adipose tissue (sWAT) weight” value is “decreased”; the tolerability entry is “well tolerated and no overt toxicities were noted”; the “plasma insulin levels on Day 15” value is recorded as “significant decrease in the levels of insulin”. Also, in data set [1], the “change in body weight” value is “progressive weight loss”. In data set [1] (FIG. 8B), the “weights of individual mice” value is listed as “induced weight loss”. Besides, in data set [1] (picrosirius red, FIG. 8I), the “decrease in liver collagen staining relative to tirzepatide or dulaglutide” value is “greater decrease in collagen staining” and the “liver collagen staining (fibrosis)” value is “a decrease in collagen staining”.

Turning to “GIP(AntPro3NH2): GIP antagonist peptide GIP(AntPro3), presumably having amidated carboxy terminus (YAPGTFISDYSIAMDKIHQQDFVNWLLAQKGKKNDWKHNITQ-NH2)”, the “inhibition of GIP(Ag)-induced activation of the cAMP-luciferase reporter gene (GIPR antagonism)” value with GIPR (setting [3]) is listed as “dose-dependent inhibition of GIP(Ag)-induced activation”; with GIPR (FIG. 5A), “more potent inhibition of GIP agonist signaling than the others tested; also recorded: maximal level of a dose-dependent inhibition of GIP(Ag)-induced activation”.
